# Measurements taken from ChEMBL document CHEMBL3044672, “N9- and N7-(Chloromethyl Phenymethyl)Chloropurine Derivatives from , '-Dichloroxylenes: Synthesis and Anticancer Activity” (2005).
# What was measured:
# Assay type in all cases: functional
# HT-29 = assay: Cytotoxicity against Homo sapiens (human) HT-29 cells after 48 hr by sulforhodamine B assay; settings: HT-29, 48 h
# NCI-H226 = assay: Cytotoxicity against Homo sapiens (human) NCI-H226 cells after 48 hr by sulforhodamine B assay; settings: NCI-H226, 48 h; for CC50: read-out: LC50 (the source's name)
# EKVX = assay: Cytotoxicity against Homo sapiens (human) EKVX cells after 48 hr by sulforhodamine B assay; settings: for CC50: read-out: LC50 (the source's name)
# OVCAR-4 = assay: Cytotoxicity against Homo sapiens (human) OVCAR4 cells after 48 hr by sulforhodamine B assay; settings: OVCAR-4, 48 h
# SF-539 = assay: Cytotoxicity against Homo sapiens (human) SF539 cells after 48 hr by sulforhodamine B assay; settings: SF-539, 48 h
# SK-MEL-2 = assay: Cytotoxicity against Homo sapiens (human) SK-MEL-2 cells after 48 hr by sulforhodamine B assay; settings: SK-MEL-2, 48 h
# U-251 = assay: Cytotoxicity against Homo sapiens (human) U251 cells after 48 hr by sulforhodamine B assay; settings: U-251, 48 h
# K562 = assay: Cytotoxicity against Homo sapiens (human) K562 cells after 48 hr by sulforhodamine B assay; settings: K562, 48 h; for CC50: read-out: LC50 (the source's name)
# IGROV-1 = assay: Cytotoxicity against Homo sapiens (human) IGROV1 cells after 48 hr by sulforhodamine B assay; settings: IGROV-1, 48 h
# KM12 = assay: Cytotoxicity against Homo sapiens (human) KM12 cells after 48 hr by sulforhodamine B assay; settings: KM12, 48 h; for CC50: read-out: LC50 (the source's name)
# [1] = Cytotoxicity against Homo sapiens (human) NCI-ADR-RES cells after 48 hr by sulforhodamine B assay
# UACC-257 = assay: Cytotoxicity against Homo sapiens (human) UACC257 cells after 48 hr by sulforhodamine B assay; settings: UACC-257, 48 h
# SN12C = assay: Cytotoxicity against Homo sapiens (human) SN12C cells after 48 hr by sulforhodamine B assay
# MDA-MB-231 = assay: Cytotoxicity against Homo sapiens (human) MDA-MB-231 cells after 48 hr by sulforhodamine B assay; settings: MDA-MB-231, 48 h
# HOP-62 = assay: Cytotoxicity against Homo sapiens (human) HOP62 cells after 48 hr by sulforhodamine B assay; settings: HOP-62, 48 h; for CC50: read-out: LC50 (the source's name)
# UACC-62 = assay: Cytotoxicity against Homo sapiens (human) UACC62 cells after 48 hr by sulforhodamine B assay; settings: UACC-62, 48 h
# MOLT-4 = assay: Cytotoxicity against Homo sapiens (human) MOLT4 cells after 48 hr by sulforhodamine B assay; settings: MOLT-4, 48 h; for CC50: read-out: LC50 (the source's name)
# OVCAR-3 = assay: Cytotoxicity against Homo sapiens (human) OVCAR3 cells after 48 hr by sulforhodamine B assay; settings: OVCAR-3, 48 h
# RXF 393 = assay: Cytotoxicity against Homo sapiens (human) RXF393 cells after 48 hr by sulforhodamine B assay; settings: RXF 393, 48 h; for CC50: read-out: LC50 (the source's name)
# A549 = assay: Cytotoxicity against Homo sapiens (human) A549 cells after 48 hr by sulforhodamine B assay; settings: A549, 48 h; for CC50: read-out: LC50 (the source's name)
# PC-3 = assay: Cytotoxicity against Homo sapiens (human) PC3 cells after 48 hr by sulforhodamine B assay; settings: PC-3, 48 h
# MDA-MB-435 = assay: Cytotoxicity against Homo sapiens (human) MDA-MB-435 cells after 48 hr by sulforhodamine B assay; settings: MDA-MB-435, 48 h
# COLO 205 = assay: Cytotoxicity against Homo sapiens (human) COLO205 cells after 48 hr by sulforhodamine B assay; settings: COLO 205, 48 h
# CAKI-1 = assay: Cytotoxicity against Homo sapiens (human) Caki1 cells after 48 hr by sulforhodamine B assay; settings: CAKI-1, 48 h
# SK-MEL-5 = assay: Cytotoxicity against Homo sapiens (human) SK-MEL-5 cells after 48 hr by sulforhodamine B assay; settings: SK-MEL-5, 48 h
# NCI-H23 = assay: Cytotoxicity against Homo sapiens (human) NCI-H23 cells after 48 hr by sulforhodamine B assay; settings: NCI-H23, 48 h; for CC50: read-out: LC50 (the source's name)
# NCI-H522 = assay: Cytotoxicity against Homo sapiens (human) NCI-H522 cells after 48 hr by sulforhodamine B assay; settings: NCI-H522, 48 h; for CC50: read-out: LC50 (the source's name)
# HCC 2998 = assay: Cytotoxicity against Homo sapiens (human) HCC2998 cells after 48 hr by sulforhodamine B assay; settings: HCC 2998, 48 h; for CC50: read-out: LC50 (the source's name)
# SF-268 = assay: Cytotoxicity against Homo sapiens (human) SF268 cells assessed as cell growth at 10^-4 M after 48 hr by […] assay; settings: SF-268, 48 h, read-out: Activity
# NCI-H322M = assay: Cytotoxicity against Homo sapiens (human) NCI-H322M cells after 48 hr by sulforhodamine B assay; settings: for CC50: read-out: LC50 (the source's name)
# HCT-116 = assay: Cytotoxicity against Homo sapiens (human) HCT116 cells after 48 hr by sulforhodamine B assay; settings: HCT-116, 48 h; for CC50: read-out: LC50 (the source's name)
# [2] = read-out: LC50 (the source's name)
compound,measurement,setting,value
ClCc1cccc(Cn2cnc3nc(Cl)nc(Cl)c32)c1,GI50,HT-29,0.34 µM
same,GI50,NCI-H226,1.28 µM
same,TGI,NCI-H226,3.63 µM
same,CC50,NCI-H226,19.9 µM
same,GI50,EKVX,0.93 µM
same,TGI,EKVX,2.13 µM
same,CC50,EKVX,4.57 µM
same,GI50,OVCAR-4,1.58 µM
same,LC50 (concentration killing 50% of cells),OVCAR-4,5.37 µM
same,TGI,OVCAR-4,2.95 µM
same,GI50,SF-539,0.16 µM
same,LC50 (concentration killing 50% of cells),SF-539,1.62 µM
same,TGI,SF-539,0.46 µM
same,GI50,SK-MEL-2,1.77 µM
same,LC50 (concentration killing 50% of cells),SK-MEL-2,7.76 µM
same,TGI,SK-MEL-2,3.71 µM
same,GI50,U-251,1.38 µM
same,LC50 (concentration killing 50% of cells),U-251,5.12 µM
same,TGI,U-251,2.69 µM
same,GI50,K562,1.41 µM
same,TGI,K562,2.69 µM
same,CC50,K562,5.24 µM
same,GI50,IGROV-1,17 µM
same,LC50,IGROV-1,55 µM
same,TGI,IGROV-1,30.9 µM
same,GI50,KM12,16.6 µM
same,TGI,KM12,35.5 µM
same,CC50,KM12,74.1 µM
same,GI50,[1],1.54 µM
same,LC50 (concentration killing 50% of cells),[1],> 100 µM
same,TGI,[1],3.09 µM
same,GI50,UACC-257,3.46 µM
same,LC50 (concentration killing 50% of cells),UACC-257,38.9 µM
same,TGI,UACC-257,15.1 µM
same,GI50,SN12C,1.44 µM
same,TGI,SN12C,2.75 µM
same,GI50,MDA-MB-231,0.46 µM
same,LC50,MDA-MB-231,4.16 µM
same,TGI,MDA-MB-231,1.73 µM
same,GI50,HOP-62,2.18 µM
same,TGI,HOP-62,3.63 µM
same,CC50,HOP-62,6.02 µM
same,GI50,UACC-62,1.02 µM
same,LC50 (concentration causing 50% net cell kill),UACC-62,4.67 µM
same,TGI,UACC-62,2.18 µM
same,GI50,MOLT-4,1.04 µM
same,TGI,MOLT-4,2.29 µM
same,CC50,MOLT-4,5.01 µM
same,GI50,OVCAR-3,1.51 µM
same,LC50,OVCAR-3,5.37 µM
same,TGI,OVCAR-3,2.88 µM
same,GI50,RXF 393,1.34 µM
same,TGI,RXF 393,2.63 µM
same,CC50,RXF 393,5.12 µM
same,GI50,A549,12 µM
same,TGI,A549,25.7 µM
same,CC50,A549,55 µM
same,GI50,PC-3,1.54 µM
same,LC50 (concentration causing 50% cell kill),PC-3,5.37 µM
same,TGI,PC-3,2.88 µM
same,GI50,MDA-MB-435,1.47 µM
same,LC50,MDA-MB-435,5.24 µM
same,TGI,MDA-MB-435,2.81 µM
same,GI50,COLO 205,0.41 µM
same,TGI,COLO 205,1.65 µM
same,GI50,CAKI-1,1.86 µM
same,TGI,CAKI-1,3.46 µM
same,GI50,SK-MEL-5,1.2 µM
same,LC50,SK-MEL-5,4.89 µM
same,TGI,SK-MEL-5,2.45 µM
same,GI50,NCI-H23,1.54 µM
same,TGI,NCI-H23,30.9 µM
same,CC50,NCI-H23,5.37 µM
same,GI50,NCI-H522,1.81 µM
same,TGI,NCI-H522,3.54 µM
same,CC50,NCI-H522,6.91 µM
same,GI50,HCC 2998,1.9 µM
same,TGI,HCC 2998,3.31 µM
same,CC50,HCC 2998,5.75 µM
same,growth at 100 µM,SF-268,0%
same,GI50,NCI-H322M,14.1 µM
same,TGI,NCI-H322M,26.9 µM
same,CC50,NCI-H322M,52.5 µM
same,GI50,HCT-116,0.75 µM
same,TGI,HCT-116,1.99 µM
same,CC50,HCT-116,4.46 µM
ClCc1cccc(Cn2cnc3c(Cl)nc(Cl)nc32)c1,GI50,HT-29,2.39 µM
same,TGI,HT-29,> 100 µM
same,CC50,HT-29; [2],> 100 µM
same,GI50,NCI-H226,3.23 µM
same,TGI,NCI-H226,10 µM
same,CC50,NCI-H226,40.7 µM
same,GI50,EKVX,1.73 µM
same,TGI,EKVX,2.31 µM
same,CC50,EKVX,6.45 µM
same,GI50,OVCAR-4,5.49 µM
same,LC50 (concentration killing 50% of cells),OVCAR-4,61.7 µM
same,TGI,OVCAR-4,19.9 µM
same,GI50,SF-539,2.18 µM
same,LC50 (concentration killing 50% of cells),SF-539,40.7 µM
same,TGI,SF-539,14.1 µM
same,GI50,SK-MEL-2,1.99 µM
same,LC50 (concentration killing 50% of cells),SK-MEL-2,10 µM
same,TGI,SK-MEL-2,4.46 µM
same,GI50,U-251,1.69 µM
same,LC50 (concentration killing 50% of cells),U-251,5.62 µM
same,TGI,U-251,3.09 µM
same,GI50,K562,1.58 µM
same,TGI,K562,> 100 µM
same,CC50,K562,> 100 µM
same,GI50,IGROV-1,2.29 µM
same,LC50,IGROV-1,19.9 µM
same,TGI,IGROV-1,5.12 µM
same,GI50,KM12,1.82 µM
same,TGI,KM12,3.8 µM
same,CC50,KM12,7.94 µM
same,GI50,[1],2.39 µM
same,LC50 (concentration killing 50% of cells),[1],> 100 µM
same,TGI,[1],5.24 µM
same,GI50,UACC-257,1.86 µM
same,LC50 (concentration killing 50% of cells),UACC-257,6.45 µM
same,TGI,UACC-257,3.46 µM
same,GI50,SN12C,2.13 µM
same,LC50 (50% lethal concentration),SN12C,11.8 µM
same,TGI,SN12C,4.67 µM
same,GI50,MDA-MB-231,1.95 µM
same,LC50,MDA-MB-231,7.24 µM
same,TGI,MDA-MB-231,3.71 µM
same,GI50,HOP-62,2.29 µM
same,TGI,HOP-62,4.36 µM
same,CC50,HOP-62,8.31 µM
same,GI50,UACC-62,1.86 µM
same,LC50 (concentration causing 50% net cell kill),UACC-62,6.45 µM
same,TGI,UACC-62,3.46 µM
same,GI50,MOLT-4,3.38 µM
same,TGI,MOLT-4,> 100 µM
same,CC50,MOLT-4,> 100 µM
same,GI50,OVCAR-3,1.58 µM
same,LC50,OVCAR-3,6.45 µM
same,TGI,OVCAR-3,3.23 µM
same,GI50,RXF 393,0.75 µM
same,TGI,RXF 393,2.09 µM
same,CC50,RXF 393,5.12 µM
same,GI50,A549,3.09 µM
same,TGI,A549,10 µM
same,CC50,A549,52.5 µM
same,GI50,PC-3,2.39 µM
same,LC50 (concentration causing 50% cell kill),PC-3,55 µM
same,TGI,PC-3,5.01 µM
same,GI50,MDA-MB-435,1.69 µM
same,LC50,MDA-MB-435,6.31 µM
same,TGI,MDA-MB-435,3.23 µM
same,GI50,COLO 205,2.23 µM
same,TGI,COLO 205,5.37 µM
same,CC50,COLO 205; [2],> 100 µM
same,GI50,CAKI-1,2.23 µM
same,TGI,CAKI-1,5.88 µM
same,CC50,CAKI-1; [2],22.9 µM
same,GI50,SK-MEL-5,1.58 µM
same,LC50,SK-MEL-5,5.88 µM
same,TGI,SK-MEL-5,3.02 µM
same,GI50,NCI-H23,2.13 µM
same,TGI,NCI-H23,5.12 µM
same,CC50,NCI-H23,22.4 µM
same,GI50,NCI-H522,2.69 µM
same,TGI,NCI-H522,5.37 µM
same,CC50,NCI-H522,17 µM
same,GI50,HCC 2998,1.62 µM
same,TGI,HCC 2998,3.16 µM
same,CC50,HCC 2998,6.16 µM
same,growth at 100 µM,SF-268,0%
same,GI50,NCI-H322M,2.29 µM
same,TGI,NCI-H322M,5.12 µM
same,CC50,NCI-H322M,15.8 µM
same,GI50,HCT-116,1.62 µM
same,TGI,HCT-116,3.09 µM
same,CC50,HCT-116,5.88 µM
